# Measured values published in ChEMBL document CHEMBL1139710, “Syntheses and studies of quinolone-cephalosporins as potential anti-tuberculosis agents” (Bioorg Med Chem Lett, 2006).
# Test system: Mycolicibacterium aurum
# Assay: Antibacterial activity against Mycobacterium aurum DSM 43436
# Type: functional
# Settings: not given
row,SMILES,MIC
1,O=C(Cc1ccccc1)N[C@@H]1C(=O)N2C(C(=O)OC(c3ccccc3)c3ccccc3)=C(COC(=O)N3CCN(c4cc5c(cc4F)c(=O)c(C(=O)O)cn5C4CC4)CC3)CS[C@H]12,0.2 µM
2,O=C(Cc1ccccc1)N[C@@H]1C(=O)N2C(C(=O)O)=C(COC(=O)N3CCN(c4cc5c(cc4F)c(=O)c(C(=O)O)cn5C4CC4)CC3)CS[C@H]12,0.2 µM
3,COc1ccc(COC(=O)C2=C(CN3CCN(c4cc5c(cc4F)c(=O)c(C(=O)O)cn5C4CC4)CC3)CS[C@@H]3[C@H](NC(=O)Cc4ccccc4)C(=O)N23)cc1,1.56 µM

# Test system: Mycolicibacterium aurum
# Assay: Antibacterial activity against Mycobacterium aurum SB66
# Type: functional
# Settings: not given
row,SMILES,MIC
1,O=C(Cc1ccccc1)N[C@@H]1C(=O)N2C(C(=O)OC(c3ccccc3)c3ccccc3)=C(COC(=O)N3CCN(c4cc5c(cc4F)c(=O)c(C(=O)O)cn5C4CC4)CC3)CS[C@H]12,0.2 µM
2,O=C(Cc1ccccc1)N[C@@H]1C(=O)N2C(C(=O)O)=C(COC(=O)N3CCN(c4cc5c(cc4F)c(=O)c(C(=O)O)cn5C4CC4)CC3)CS[C@H]12,0.2 µM
3,COc1ccc(COC(=O)C2=C(CN3CCN(c4cc5c(cc4F)c(=O)c(C(=O)O)cn5C4CC4)CC3)CS[C@@H]3[C@H](NC(=O)Cc4ccccc4)C(=O)N23)cc1,0.8 µM

# Test system: Mycobacterium tuberculosis
# Assay: Antibacterial activity against Mycobacterium tuberculosis H37Rv by microplate alamar blue assay
# Type: functional
# Settings: not given
row,SMILES,MIC
1,COc1ccc(COC(=O)C2=C(CCl)CS[C@@H]3[C@H](NC(=O)Cc4ccccc4)C(=O)N23)cc1,31.5 µM
2,O=C(Cc1ccccc1)N[C@@H]1C(=O)N2C(C(=O)OC(c3ccccc3)c3ccccc3)=C(COC(=O)N3CCN(c4cc5c(cc4F)c(=O)c(C(=O)O)cn5C4CC4)CC3)CS[C@H]12,8 µM
3,O=C(Cc1ccccc1)N[C@@H]1C(=O)N2C(C(=O)O)=C(COC(=O)N3CCN(c4cc5c(cc4F)c(=O)c(C(=O)O)cn5C4CC4)CC3)CS[C@H]12,1.6 µM
4,COc1ccc(COC(=O)C2=C(CN3CCN(c4cc5c(cc4F)c(=O)c(C(=O)O)cn5C4CC4)CC3)CS[C@@H]3[C@H](NC(=O)Cc4ccccc4)C(=O)N23)cc1,62.3 µM

# Test system: Micrococcus luteus
# Assay: Antibacterial activity against Micrococcus luteus ATCC 10240
# Type: functional
# Settings: not given
row,SMILES,MIC
1,COc1ccc(COC(=O)C2=C(CCl)CS[C@@H]3[C@H](NC(=O)Cc4ccccc4)C(=O)N23)cc1,50 µM
2,O=C(Cc1ccccc1)N[C@@H]1C(=O)N2C(C(=O)OC(c3ccccc3)c3ccccc3)=C(COC(=O)N3CCN(c4cc5c(cc4F)c(=O)c(C(=O)O)cn5C4CC4)CC3)CS[C@H]12,12.5 µM
3,O=C(Cc1ccccc1)N[C@@H]1C(=O)N2C(C(=O)O)=C(COC(=O)N3CCN(c4cc5c(cc4F)c(=O)c(C(=O)O)cn5C4CC4)CC3)CS[C@H]12,0.2 µM
4,COc1ccc(COC(=O)C2=C(CN3CCN(c4cc5c(cc4F)c(=O)c(C(=O)O)cn5C4CC4)CC3)CS[C@@H]3[C@H](NC(=O)Cc4ccccc4)C(=O)N23)cc1,3.12 µM

# Test system: Enterococcus faecalis
# Assay: Antibacterial activity against Enterococcus faecalis 1528 VRE
# Type: functional
# Settings: not given
row,SMILES,MIC
1,O=C(Cc1ccccc1)N[C@@H]1C(=O)N2C(C(=O)OC(c3ccccc3)c3ccccc3)=C(COC(=O)N3CCN(c4cc5c(cc4F)c(=O)c(C(=O)O)cn5C4CC4)CC3)CS[C@H]12,3.12 µM
2,O=C(Cc1ccccc1)N[C@@H]1C(=O)N2C(C(=O)O)=C(COC(=O)N3CCN(c4cc5c(cc4F)c(=O)c(C(=O)O)cn5C4CC4)CC3)CS[C@H]12,6.25 µM
3,COc1ccc(COC(=O)C2=C(CN3CCN(c4cc5c(cc4F)c(=O)c(C(=O)O)cn5C4CC4)CC3)CS[C@@H]3[C@H](NC(=O)Cc4ccccc4)C(=O)N23)cc1,50 µM

# Test system: Mycolicibacterium vaccae
# Assay: Antibacterial activity against Mycobacterium vaccae IMET10670
# Type: functional
# Settings: not given
row,SMILES,MIC
1,COc1ccc(COC(=O)C2=C(CCl)CS[C@@H]3[C@H](NC(=O)Cc4ccccc4)C(=O)N23)cc1,100 µM
2,O=C(Cc1ccccc1)N[C@@H]1C(=O)N2C(C(=O)OC(c3ccccc3)c3ccccc3)=C(COC(=O)N3CCN(c4cc5c(cc4F)c(=O)c(C(=O)O)cn5C4CC4)CC3)CS[C@H]12,1.56 µM
3,O=C(Cc1ccccc1)N[C@@H]1C(=O)N2C(C(=O)O)=C(COC(=O)N3CCN(c4cc5c(cc4F)c(=O)c(C(=O)O)cn5C4CC4)CC3)CS[C@H]12,1.56 µM
4,COc1ccc(COC(=O)C2=C(CN3CCN(c4cc5c(cc4F)c(=O)c(C(=O)O)cn5C4CC4)CC3)CS[C@@H]3[C@H](NC(=O)Cc4ccccc4)C(=O)N23)cc1,3.12 µM

# Test system: Staphylococcus aureus
# Assay: Antibacterial activity against Staphylococcus aureus SG 511
# Type: functional
# Settings: not given
row,SMILES,MIC
1,COc1ccc(COC(=O)C2=C(CCl)CS[C@@H]3[C@H](NC(=O)Cc4ccccc4)C(=O)N23)cc1,1.56 µM
2,O=C(Cc1ccccc1)N[C@@H]1C(=O)N2C(C(=O)OC(c3ccccc3)c3ccccc3)=C(COC(=O)N3CCN(c4cc5c(cc4F)c(=O)c(C(=O)O)cn5C4CC4)CC3)CS[C@H]12,0.2 µM
3,O=C(Cc1ccccc1)N[C@@H]1C(=O)N2C(C(=O)O)=C(COC(=O)N3CCN(c4cc5c(cc4F)c(=O)c(C(=O)O)cn5C4CC4)CC3)CS[C@H]12,0.4 µM
4,COc1ccc(COC(=O)C2=C(CN3CCN(c4cc5c(cc4F)c(=O)c(C(=O)O)cn5C4CC4)CC3)CS[C@@H]3[C@H](NC(=O)Cc4ccccc4)C(=O)N23)cc1,1.56 µM

# Test system: Mycolicibacterium smegmatis
# Assay: Antibacterial activity against Mycobacterium smegmatis SG987
# Type: functional
# Settings: not given
row,SMILES,MIC
1,O=C(Cc1ccccc1)N[C@@H]1C(=O)N2C(C(=O)OC(c3ccccc3)c3ccccc3)=C(COC(=O)N3CCN(c4cc5c(cc4F)c(=O)c(C(=O)O)cn5C4CC4)CC3)CS[C@H]12,1.56 µM
2,O=C(Cc1ccccc1)N[C@@H]1C(=O)N2C(C(=O)O)=C(COC(=O)N3CCN(c4cc5c(cc4F)c(=O)c(C(=O)O)cn5C4CC4)CC3)CS[C@H]12,3.12 µM
3,COc1ccc(COC(=O)C2=C(CN3CCN(c4cc5c(cc4F)c(=O)c(C(=O)O)cn5C4CC4)CC3)CS[C@@H]3[C@H](NC(=O)Cc4ccccc4)C(=O)N23)cc1,12.5 µM

# Test system: Escherichia coli
# Assay: Antibacterial activity against Escherichia coli DC0
# Type: functional, organism-based
# Settings: not given
SMILES,MIC,IC50
COc1ccc(COC(=O)C2=C(CCl)CS[C@@H]3[C@H](NC(=O)Cc4ccccc4)C(=O)N23)cc1,200 µM,
O=C(Cc1ccccc1)N[C@@H]1C(=O)N2C(C(=O)OC(c3ccccc3)c3ccccc3)=C(COC(=O)N3CCN(c4cc5c(cc4F)c(=O)c(C(=O)O)cn5C4CC4)CC3)CS[C@H]12,,1.56 µM
O=C(Cc1ccccc1)N[C@@H]1C(=O)N2C(C(=O)O)=C(COC(=O)N3CCN(c4cc5c(cc4F)c(=O)c(C(=O)O)cn5C4CC4)CC3)CS[C@H]12,3.12 µM,
COc1ccc(COC(=O)C2=C(CN3CCN(c4cc5c(cc4F)c(=O)c(C(=O)O)cn5C4CC4)CC3)CS[C@@H]3[C@H](NC(=O)Cc4ccccc4)C(=O)N23)cc1,25 µM,

# Test system: Enterobacter cloacae
# Assay: Antibacterial activity against Enterobacter cloacae P99
# Type: functional
# Settings: not given
row,SMILES,MIC
1,O=C(Cc1ccccc1)N[C@@H]1C(=O)N2C(C(=O)OC(c3ccccc3)c3ccccc3)=C(COC(=O)N3CCN(c4cc5c(cc4F)c(=O)c(C(=O)O)cn5C4CC4)CC3)CS[C@H]12,< 0.1 µM
2,O=C(Cc1ccccc1)N[C@@H]1C(=O)N2C(C(=O)O)=C(COC(=O)N3CCN(c4cc5c(cc4F)c(=O)c(C(=O)O)cn5C4CC4)CC3)CS[C@H]12,0.2 µM
3,COc1ccc(COC(=O)C2=C(CN3CCN(c4cc5c(cc4F)c(=O)c(C(=O)O)cn5C4CC4)CC3)CS[C@@H]3[C@H](NC(=O)Cc4ccccc4)C(=O)N23)cc1,0.4 µM

# Test system: Pseudomonas aeruginosa
# Assay: Antibacterial activity against Pseudomonas aeruginosa KW 799
# Type: functional
# Settings: not given
row,SMILES,MIC
1,COc1ccc(COC(=O)C2=C(CCl)CS[C@@H]3[C@H](NC(=O)Cc4ccccc4)C(=O)N23)cc1,100 µM
2,O=C(Cc1ccccc1)N[C@@H]1C(=O)N2C(C(=O)OC(c3ccccc3)c3ccccc3)=C(COC(=O)N3CCN(c4cc5c(cc4F)c(=O)c(C(=O)O)cn5C4CC4)CC3)CS[C@H]12,1.56 µM
3,O=C(Cc1ccccc1)N[C@@H]1C(=O)N2C(C(=O)O)=C(COC(=O)N3CCN(c4cc5c(cc4F)c(=O)c(C(=O)O)cn5C4CC4)CC3)CS[C@H]12,3.12 µM
4,COc1ccc(COC(=O)C2=C(CN3CCN(c4cc5c(cc4F)c(=O)c(C(=O)O)cn5C4CC4)CC3)CS[C@@H]3[C@H](NC(=O)Cc4ccccc4)C(=O)N23)cc1,12.5 µM

# Test system: Pseudomonas aeruginosa
# Assay: Antibacterial activity against Pseudomonas aeruginosa KW 799/ 61 permeability mutant
# Type: functional
# Settings: not given
row,SMILES,MIC
1,COc1ccc(COC(=O)C2=C(CCl)CS[C@@H]3[C@H](NC(=O)Cc4ccccc4)C(=O)N23)cc1,50 µM
2,O=C(Cc1ccccc1)N[C@@H]1C(=O)N2C(C(=O)OC(c3ccccc3)c3ccccc3)=C(COC(=O)N3CCN(c4cc5c(cc4F)c(=O)c(C(=O)O)cn5C4CC4)CC3)CS[C@H]12,1.56 µM
3,O=C(Cc1ccccc1)N[C@@H]1C(=O)N2C(C(=O)O)=C(COC(=O)N3CCN(c4cc5c(cc4F)c(=O)c(C(=O)O)cn5C4CC4)CC3)CS[C@H]12,3.12 µM
4,COc1ccc(COC(=O)C2=C(CN3CCN(c4cc5c(cc4F)c(=O)c(C(=O)O)cn5C4CC4)CC3)CS[C@@H]3[C@H](NC(=O)Cc4ccccc4)C(=O)N23)cc1,12.5 µM

# Test system: Vero
# Assay: Cytotoxicity against Vero cells
# Type: cell-based
# Settings: Chlorocebus sabaeus
row,SMILES,IC50
1,O=C(Cc1ccccc1)N[C@@H]1C(=O)N2C(C(=O)OC(c3ccccc3)c3ccccc3)=C(COC(=O)N3CCN(c4cc5c(cc4F)c(=O)c(C(=O)O)cn5C4CC4)CC3)CS[C@H]12,> 128 µM
2,O=C(Cc1ccccc1)N[C@@H]1C(=O)N2C(C(=O)O)=C(COC(=O)N3CCN(c4cc5c(cc4F)c(=O)c(C(=O)O)cn5C4CC4)CC3)CS[C@H]12,> 128 µM
3,COc1ccc(COC(=O)C2=C(CN3CCN(c4cc5c(cc4F)c(=O)c(C(=O)O)cn5C4CC4)CC3)CS[C@@H]3[C@H](NC(=O)Cc4ccccc4)C(=O)N23)cc1,13.1 µM

# Test system: Escherichia coli
# Assay: Antibacterial activity against Escherichia coli DC2 permeability mutant
# Type: functional
# Settings: not given
row,SMILES,MIC
1,O=C(Cc1ccccc1)N[C@@H]1C(=O)N2C(C(=O)OC(c3ccccc3)c3ccccc3)=C(COC(=O)N3CCN(c4cc5c(cc4F)c(=O)c(C(=O)O)cn5C4CC4)CC3)CS[C@H]12,0.2 µM
2,O=C(Cc1ccccc1)N[C@@H]1C(=O)N2C(C(=O)O)=C(COC(=O)N3CCN(c4cc5c(cc4F)c(=O)c(C(=O)O)cn5C4CC4)CC3)CS[C@H]12,0.8 µM
3,COc1ccc(COC(=O)C2=C(CN3CCN(c4cc5c(cc4F)c(=O)c(C(=O)O)cn5C4CC4)CC3)CS[C@@H]3[C@H](NC(=O)Cc4ccccc4)C(=O)N23)cc1,6.25 µM

# Test system: Staphylococcus aureus
# Assay: Antibacterial activity against Staphylococcus aureus 134/93 MRSA
# Type: functional
# Settings: not given
row,SMILES,MIC
1,O=C(Cc1ccccc1)N[C@@H]1C(=O)N2C(C(=O)OC(c3ccccc3)c3ccccc3)=C(COC(=O)N3CCN(c4cc5c(cc4F)c(=O)c(C(=O)O)cn5C4CC4)CC3)CS[C@H]12,100 µM
2,O=C(Cc1ccccc1)N[C@@H]1C(=O)N2C(C(=O)O)=C(COC(=O)N3CCN(c4cc5c(cc4F)c(=O)c(C(=O)O)cn5C4CC4)CC3)CS[C@H]12,200 µM
3,COc1ccc(COC(=O)C2=C(CN3CCN(c4cc5c(cc4F)c(=O)c(C(=O)O)cn5C4CC4)CC3)CS[C@@H]3[C@H](NC(=O)Cc4ccccc4)C(=O)N23)cc1,> 200 µM

# Test system: Mycolicibacterium fortuitum
# Assay: Antibacterial activity against Mycobacterium fortuitum B
# Type: functional
# Settings: not given
row,SMILES,MIC
1,COc1ccc(COC(=O)C2=C(CCl)CS[C@@H]3[C@H](NC(=O)Cc4ccccc4)C(=O)N23)cc1,100 µM
2,O=C(Cc1ccccc1)N[C@@H]1C(=O)N2C(C(=O)OC(c3ccccc3)c3ccccc3)=C(COC(=O)N3CCN(c4cc5c(cc4F)c(=O)c(C(=O)O)cn5C4CC4)CC3)CS[C@H]12,0.8 µM
3,O=C(Cc1ccccc1)N[C@@H]1C(=O)N2C(C(=O)O)=C(COC(=O)N3CCN(c4cc5c(cc4F)c(=O)c(C(=O)O)cn5C4CC4)CC3)CS[C@H]12,0.8 µM
4,COc1ccc(COC(=O)C2=C(CN3CCN(c4cc5c(cc4F)c(=O)c(C(=O)O)cn5C4CC4)CC3)CS[C@@H]3[C@H](NC(=O)Cc4ccccc4)C(=O)N23)cc1,12.5 µM
